In the supplement of paper PMC10627819:

Tests used:
[1] = system: S. pneumoniae D39V; experiment: Bliss interaction score (quartile over a dose matrix) (fitness difference); higher = more antagonism (negative = synergy)
In short: (§1)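 Quartiles summarise the Bliss score over technical, biological and donor/recipient replicates, where the score is observed minus expected fitness under a product model. Expected fitness uses single-drug values inferred from combination data. Fitness is OD595 at entry into stationary phase over the plate's robust no-drug mean, capped at 1.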

[2] = system: S. aureus DSM 20231; experiment: as above
In short: as §1

[3] = system: S. aureus Newman; experiment: as above
In short: as §1

[4] = system: B. subtilis 168; experiment: as above
In short: as §1

[5] = system: S. pneumoniae D39V; experiment: fitness (endpoint OD595 vs no drug) (fraction); higher = more growth
In short: (§2)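 Background-subtracted growth curves were the basis for fitness, taken as the optical density at entry into stationary phase over the robust mean of no-drug control wells. A cap of 1 was applied. The curves came from OD595 readings every 30 min for 14 h at 37 °C, in 384-well plates seeded at OD595 0.01 with 30 µl, or 55 µl for S. pneumoniae.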

[6] = system: S. aureus Newman; experiment: as above
In short: as §2

[7] = system: B. subtilis 168; experiment: as above
In short: as §2

[8] = first compound 0.5 µg/mL, partner 0.5 µg/mL, one replicate
[9] = first compound 0.5 µg/mL, partner 1 µg/mL, one replicate
[10] = first compound 0.5 µg/mL, partner 2 µg/mL, one replicate
[11] = first compound 1 µg/mL, partner 0.5 µg/mL, one replicate
[12] = first compound 1 µg/mL, partner 1 µg/mL, one replicate
[13] = first compound 2 µg/mL, partner 0.5 µg/mL, one replicate
[14] = first compound 2 µg/mL, partner 1 µg/mL, one replicate
[15] = first compound 0.25 µg/mL, partner 0.0625 µg/mL
[16] = first compound 0.25 µg/mL, partner 0.125 µg/mL
[17] = first compound 0.25 µg/mL, partner 0.25 µg/mL
[18] = first compound 0.5 µg/mL, partner 0.0625 µg/mL
[19] = first compound 0.5 µg/mL, partner 0.125 µg/mL
[20] = first compound 0.5 µg/mL, partner 0.25 µg/mL
[21] = first compound 0.25 µg/mL, partner 85.5 µg/mL
[22] = first compound 0.25 µg/mL, partner 342 µg/mL
[23] = first compound 0.5 µg/mL, partner 342 µg/mL
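For Bliss interaction score (quartile over a dose matrix) in this document: first quartile when negative (synergy) and third quartile when positive (antagonism).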

For CC1=C(C(=O)O)N2C(=O)[C@@H](NC(=O)[C@H](N)c3ccccc3)[C@H]2SC1 [Cephalexin] + CC1=C\[C@@H](O)CC(=O)Cc2nc(co2)C(=O)N2CCC=C2C(=O)O[C@H](C(C)C)[C@H](C)/C=C/C(=O)NC\C=C\1 [Virginiamycin M1], the Bliss interaction score [1] was 0.16, the Bliss interaction score [2] was 0.0651 and the Bliss interaction score [3] was 0.023. It also gave a Bliss interaction score [4] of 0.0598, a fitness ([5]; first compound 0.125 µg/mL, partner 0.5 µg/mL, one replicate) of 0.967 and a fitness ([5]; first compound 0.125 µg/mL, partner 1 µg/mL, one replicate) of 0.966. The fitness ([5]; first compound 0.125 µg/mL, partner 2 µg/mL, one replicate) was 0.954, the fitness ([5]; first compound 0.25 µg/mL, partner 0.5 µg/mL, one replicate) was 0.964 and the fitness ([5]; first compound 0.25 µg/mL, partner 1 µg/mL, one replicate) was 0.991. For the same molecule, the fitness ([5]; first compound 0.25 µg/mL, partner 2 µg/mL, one replicate) was ≥ 1, the fitness [5, 8] was ≥ 1 and the fitness [5, 9] was ≥ 1. The fitness [5, 10] was ≥ 1, the fitness ([5]; first compound 1 µg/mL, partner 0.15 µg/mL, one replicate) was 0.934 and the fitness ([5]; first compound 1 µg/mL, partner 0.3 µg/mL, one replicate) was 0.885. For the same molecule, the fitness [5, 11] was 0.562, the fitness [5, 12] was 0.504 and the fitness ([5]; first compound 1 µg/mL, partner 2 µg/mL) was 0.663. The fitness ([5]; first compound 2 µg/mL, partner 0.15 µg/mL, one replicate) was 0.646, the fitness ([5]; first compound 2 µg/mL, partner 0.3 µg/mL, one replicate) was 0.628 and the fitness [5, 13] was 0.316. It also gave a fitness [5, 14] of 0.0366, a fitness ([5]; first compound 4 µg/mL, partner 0.15 µg/mL, one replicate) of 0.0743 and a fitness ([5]; first compound 4 µg/mL, partner 0.3 µg/mL, one replicate) of 0.0023. The fitness ([5]; first compound 4 µg/mL, partner 0.5 µg/mL, one replicate) was 0.338, the fitness ([5]; first compound 4 µg/mL, partner 1 µg/mL, one replicate) was 0.0659 and the fitness ([5]; first compound 4 µg/mL, partner 2 µg/mL) was 0.0521. The fitness [6, 15] was ≥ 1, the fitness [6, 16] was ≥ 1 and the fitness [6, 17] was ≥ 1. For the same molecule, the fitness [6, 18] was 0.994, the fitness [6, 19] was ≥ 1 and the fitness [6, 20] was ≥ 1. For the same molecule, the fitness [6, 8] was 0.847, the fitness [6, 9] was ≥ 1 and the fitness [6, 10] was 0.936. For the same molecule, the fitness ([6]; first compound 1 µg/mL, partner 0.0625 µg/mL) was ≥ 1, the fitness ([6]; first compound 1 µg/mL, partner 0.125 µg/mL) was ≥ 1 and the fitness ([6]; first compound 1 µg/mL, partner 0.25 µg/mL) was ≥ 1. The fitness [6, 11] was 0.951, the fitness [6, 12] was ≥ 1 and the fitness ([6]; first compound 1 µg/mL, partner 2 µg/mL, one replicate) was 0.923. The fitness [6, 13] was 0.986, the fitness [6, 14] was ≥ 1 and the fitness ([6]; first compound 2 µg/mL, partner 2 µg/mL, one replicate) was 0.978. For the same molecule, the fitness ([7]; first compound 0.125 µg/mL, partner 0.0625 µg/mL) was 0.966, the fitness ([7]; first compound 0.125 µg/mL, partner 0.125 µg/mL) was 0.944 and the fitness ([7]; first compound 0.125 µg/mL, partner 0.25 µg/mL) was 0.983. The fitness [7, 15] was 0.944, the fitness [7, 16] was 0.926 and the fitness [7, 17] was 0.911. It also gave a fitness [7, 18] of 0.955, a fitness [7, 19] of 0.99 and a fitness [7, 20] of 0.989.

In the case of CC1=C(C(=O)O)N2C(=O)[C@@H](NC(=O)[C@H](N)c3ccccc3)[C@H]2SC1 [Cephalexin] + CCN(CC)CCOC(=O)c1ccc(N)cc1 [Procaine], the Bliss interaction score [1] is reported as -0.118, the Bliss interaction score [2] is reported as 0.0552 and the Bliss interaction score [3] is reported as -0.0605. For the same molecule, the Bliss interaction score [4] was 0.0569, the fitness ([5]; first compound 0.125 µg/mL, partner 85.5 µg/mL, one replicate) was ≥ 1 and the fitness ([5]; first compound 0.125 µg/mL, partner 171 µg/mL, one replicate) was 0.958. For the same molecule, the fitness ([5]; first compound 0.125 µg/mL, partner 342 µg/mL, one replicate) was 0.962, the fitness ([5]; first compound 0.25 µg/mL, partner 85.5 µg/mL, one replicate) was ≥ 1 and the fitness ([5]; first compound 0.25 µg/mL, partner 171 µg/mL, one replicate) was 0.982. The fitness ([5]; first compound 0.25 µg/mL, partner 342 µg/mL, one replicate) was 0.997, the fitness ([5]; first compound 0.5 µg/mL, partner 85.5 µg/mL, one replicate) was ≥ 1 and the fitness ([5]; first compound 0.5 µg/mL, partner 171 µg/mL, one replicate) was ≥ 1. For the same molecule, the fitness ([5]; first compound 0.5 µg/mL, partner 342 µg/mL, one replicate) was ≥ 1, the fitness ([5]; first compound 1 µg/mL, partner 85.5 µg/mL, one replicate) was 0.253 and the fitness ([5]; first compound 1 µg/mL, partner 171 µg/mL, one replicate) was 0.422. It also gave a fitness ([5]; first compound 1 µg/mL, partner 342 µg/mL, one replicate) of 0.395, a fitness ([5]; first compound 2 µg/mL, partner 85.5 µg/mL, one replicate) of 0.0329 and a fitness ([5]; first compound 2 µg/mL, partner 171 µg/mL, one replicate) of 0.058. For the same molecule, the fitness ([5]; first compound 2 µg/mL, partner 342 µg/mL, one replicate) was 0.0539, the fitness ([5]; first compound 4 µg/mL, partner 85.5 µg/mL, one replicate) was 0.0487 and the fitness ([5]; first compound 4 µg/mL, partner 171 µg/mL, one replicate) was 0.0569. The fitness ([5]; first compound 4 µg/mL, partner 342 µg/mL, one replicate) was 0.0475, the fitness [6, 21] was 0.952 and the fitness [6, 22] was 0.966. The fitness [6, 23] was 0.987, the fitness ([6]; first compound 1 µg/mL, partner 342 µg/mL) was ≥ 1 and the fitness ([7]; first compound 0.125 µg/mL, partner 85.5 µg/mL) was 0.925. For the same molecule, the fitness ([7]; first compound 0.125 µg/mL, partner 171 µg/mL) was 0.91, the fitness ([7]; first compound 0.125 µg/mL, partner 342 µg/mL) was 0.879 and the fitness [7, 21] was 0.911. It also gave a fitness ([7]; first compound 0.25 µg/mL, partner 171 µg/mL) of 0.912, a fitness [7, 22] of 0.875 and a fitness ([7]; first compound 0.5 µg/mL, partner 85.5 µg/mL) of 0.904. For the same molecule, the fitness ([7]; first compound 0.5 µg/mL, partner 171 µg/mL) was 0.864 and the fitness [7, 23] was 0.869.
